Laboratory results reported in patent US6486174B2, “Tetrahydroisoquinoline-3-carboxylic acid alkoxyguanidines as integrin antagonists” (3-Dimensional Pharmaceuticals, Inc., priority 2000, dated 2002).
Where a name gives a salt, the structure may show the parent alone.

The compounds below were run against T1, human αvβ3 (Homo sapiens, UniProt P05106+P06756) (assay: αvβ3-vitronectin assay (ELISA, inhibition of biotinylated vitronectin binding)). Details: plate-coated human αvβ3, biotinylated human vitronectin 0.5 μg/mL, room temperature; read-out: αvβ3 IC50 (Inhibition of the αvβ3-Vitronectin Interaction).
T1 construct: purchased Chemicon CC1019
Experimental: The assay was based on the method of Niiya (Niiya, K., et al, Blood 70:475-483 (1987)). All the steps were performed at room temperature. Costar 9018 flat-bottom 96-well ELISA plates were coated overnight with 100 μL/well of 0.4 μg/mL human αvβ3 (Chemicon CC1019) in TS buffer (20 mM Tris-HCl pH 7.5, 150 mM NaCl, 1 mM CaCl2, 1 mM MgCl2, 1 mM MnCl2). Plates were blocked for 2 hours with 200 μL/well of TS buffer containing 1% BSA (TSB buffer), and washed 3 times with 200 μL/well of PBST buffer. Controls or test compound were mixed with 0.5 μg/mL of human vitronectin (Chemicon CC080) that had been biotinylated in-house with sulfo-NHS-LC-LC-biotin (Pierce 21338, 20:1 molar ratio), and 100 μL/well of these solutions (in TSB buffer) were incubated for 2 hours. The plate was then washed 5 times with PBST buffer, and 100 μL/well of 0.25 μg/mL NeutrAvidin-horseradish peroxidase conjugate (Pierce 31001) in TSB buffer was incubated for 1 hour. Following a 5-fold PBST buffer wash, the plate was developed by adding 100 μL/well of 0.67 mg o-phenylenediamine dihydrochloride per mL of 0.012% H2O2, 22 mM sodium citrate, 50 mM sodium phosphate, pH 5.0 at room temperature. The reaction was stopped with 50 μL/well of 2M H2SO4, and the absorbence at 492 nm was recorded. Percent (%) inhibition was calculated from the average of two separate determinations relative to buffer controls (no test compound added), and a four parameter fit (Marquardt, D. W., J. Soc. Indust. Appl. Math. 11:431-441 (1963)) was used to estimate the half maximal inhibition concentration (IC50).

T1 sequence (P06756 31-889 limits assumed): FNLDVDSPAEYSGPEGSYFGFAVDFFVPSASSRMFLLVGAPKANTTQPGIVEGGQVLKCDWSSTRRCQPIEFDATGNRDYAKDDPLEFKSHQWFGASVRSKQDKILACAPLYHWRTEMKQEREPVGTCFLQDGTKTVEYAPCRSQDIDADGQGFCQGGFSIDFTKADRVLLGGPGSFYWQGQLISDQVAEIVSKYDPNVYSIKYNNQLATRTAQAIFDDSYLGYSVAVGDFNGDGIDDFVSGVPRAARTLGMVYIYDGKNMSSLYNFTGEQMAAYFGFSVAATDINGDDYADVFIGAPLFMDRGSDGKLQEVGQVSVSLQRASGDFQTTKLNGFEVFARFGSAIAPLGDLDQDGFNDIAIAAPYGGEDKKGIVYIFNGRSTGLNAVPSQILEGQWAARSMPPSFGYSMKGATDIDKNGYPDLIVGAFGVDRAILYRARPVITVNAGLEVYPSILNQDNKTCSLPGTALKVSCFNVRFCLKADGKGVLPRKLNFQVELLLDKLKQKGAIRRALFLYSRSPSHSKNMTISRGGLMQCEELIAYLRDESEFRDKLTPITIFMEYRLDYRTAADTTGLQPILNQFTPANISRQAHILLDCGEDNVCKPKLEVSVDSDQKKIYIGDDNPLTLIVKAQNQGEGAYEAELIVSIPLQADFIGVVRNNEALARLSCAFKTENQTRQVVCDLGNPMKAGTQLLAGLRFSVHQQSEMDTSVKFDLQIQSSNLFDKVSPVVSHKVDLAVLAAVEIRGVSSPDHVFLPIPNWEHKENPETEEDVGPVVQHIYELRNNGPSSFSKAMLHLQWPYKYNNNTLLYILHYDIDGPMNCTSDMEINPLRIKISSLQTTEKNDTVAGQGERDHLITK
T1 sequence (P06756 891-1048 partner limits assumed): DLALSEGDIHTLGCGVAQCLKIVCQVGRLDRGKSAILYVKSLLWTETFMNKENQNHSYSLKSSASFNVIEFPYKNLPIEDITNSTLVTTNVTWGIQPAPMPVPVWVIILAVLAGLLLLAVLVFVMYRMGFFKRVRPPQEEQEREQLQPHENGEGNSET
T1 sequence (P05106 27-788): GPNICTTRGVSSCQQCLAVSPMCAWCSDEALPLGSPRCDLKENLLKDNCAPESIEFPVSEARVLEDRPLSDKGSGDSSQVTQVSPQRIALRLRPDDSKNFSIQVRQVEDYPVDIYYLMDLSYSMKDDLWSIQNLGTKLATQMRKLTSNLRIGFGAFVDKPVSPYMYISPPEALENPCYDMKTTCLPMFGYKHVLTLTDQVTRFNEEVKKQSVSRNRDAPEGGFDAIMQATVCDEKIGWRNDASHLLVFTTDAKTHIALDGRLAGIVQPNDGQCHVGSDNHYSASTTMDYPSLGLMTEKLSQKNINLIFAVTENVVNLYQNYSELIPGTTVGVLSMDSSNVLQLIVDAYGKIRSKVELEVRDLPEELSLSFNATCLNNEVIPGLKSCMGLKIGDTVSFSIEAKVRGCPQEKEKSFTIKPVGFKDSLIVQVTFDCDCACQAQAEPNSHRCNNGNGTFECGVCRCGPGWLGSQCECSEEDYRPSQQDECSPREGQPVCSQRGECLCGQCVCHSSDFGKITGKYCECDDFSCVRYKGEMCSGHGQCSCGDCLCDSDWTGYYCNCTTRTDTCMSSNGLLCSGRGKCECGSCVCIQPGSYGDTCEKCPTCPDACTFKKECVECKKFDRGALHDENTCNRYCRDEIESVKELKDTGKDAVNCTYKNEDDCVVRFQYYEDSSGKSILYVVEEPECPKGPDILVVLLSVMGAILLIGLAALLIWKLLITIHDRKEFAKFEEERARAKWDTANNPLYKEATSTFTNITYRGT

| IC50 | Compound |
| --- | --- |
| 0.5 µM | N=C(N)NOCCCOc1ccc2c(c1)CN(S(=O)(=O)c1ccc3ccccc3c1)[C@H](C(=O)O)C2 [Example 3, (3S)-7-[3-(Amidinoaminooxy)propoxy]-2-(2-naphthylsulfonyl)-1,2,3,4-tetrahydroisoquinoline-3-carboxylic Acid Trifluoroacetic Acid Salt] |
| 0.073 µM | COc1ccc(OC)c(S(=O)(=O)N2Cc3cc(OCCCONC(=N)N)ccc3C[C@H]2C(=O)O)c1 [Example 1, (3S)-7-[3-(Amidinoaminooxy)propoxy]-2-[(2,5-dimethoxyphenyl)sulfonyl]-1,2,3,4-tetrahydroisoquinoline-3-carboxylic acid trifluoroacetic Acid Salt] |
| 1.1 µM | N=C(N)NOCCCOc1ccc2c(c1)CN(S(=O)(=O)c1ccccc1)[C@H](C(=O)O)C2 [Example 2, (3S)-7-[3-(Amidinoaminooxy)propoxy]-2-(phenylsulfonyl)-1,2,3,4-tetrahydroisoquinoline-3-carboxylic Acid Trifluoroacetic Acid Salt] |
